Data published in US20170015626A1, “TWO-PHOTON-ABSORBING COMPOUND” (OTSUKA ELECTRONICS CO., LTD., priority 2014, published 2017).

System: Hek293 cells
Test: Fluorescence staining experiment on cells, observed by two-photon excitation fluorescence microscopy
Assay type: cell-based, Human
Conditions: for emission of a red fluorescence from the stained cells by two-photon excitation fluorescence microscopy: Hek293 cells stained at 1 μmol dm^−3 for 12 hours, band pass filter central wavelength 650 nm; for fluorescence staining of HeK293 cells: final concentration 1 μmol dm^−3, final DMSO 0.1% (v/v), incubated for 12 hours
Experimental: Human embryonic kidney cells, namely, Hek293 cells were used as model cells for staining. The Hek293 cells were cultured in Dulbecco's Modified Eagle's Medium (DMEM) containing 10% (v/v) fetal bovine serum and 1% (v/v) […] and streptomycin under conditions of 37° C. and 5% CO2.
For preparation of microscopic observation, Hek293 cells were subcultured on a 35-mm glass-based dish, to result in a cell density of 1×10^5 cells/dish. 24 hours after the subculture, adhesion of the cells to the dish was confirmed by microscopic observation. The medium was removed from the dish, and the resulting cells were then washed with a phosphate buffered saline (PBS) twice. 2 mL of DMEM medium not containing phenol red (final concentration of PY: 1 μmol dm^−3, final DMSO concentration: 0.1% (v/v)), to which 2 μL of dimethyl sulfoxide (DMSO) solution of the 1×10^−3 mol/dm^−3 naphthalene derivative (I), anthracene derivative (II) or pyrene derivative (III) had been added, was placed in the dish, and it was then incubated for 12 hours for staining. Immediately before microscopic observation, the medium containing the pigment was removed from the dish, and PBS was then used to wash the cells twice. After that, 2 mL of the DMEM medium not containing phenol red was added to the dish.
A two-photon excitation fluorescence microscope was produced using Optical Block (Hamamatsu Photonics K. K.). As a light source, Femtosecond titanium-sapphire laser (Mira900, Coherent) was used. A mirror unit equipped with a Galvano scanner for scanning a focal point, a short-pass dichroic mirror (FF750-SDi02-25×36, Semrock) having a cutoff wavelength at 750 nm, and a band pass filter (FF01-650/60-25, Semrock) having a central wavelength at 650 nm was inserted into the optical system. For detection of fluorescence, a photomultiplier tube (R928, Hamamatsu Photonics K. K.) was used, and DC was detected at an applied voltage of 1000 V, through a preamplifier (5 MHz)-equipped socket. USB-6251 BNC was used as DAQ, and Lab VIEW2011 (National Instruments) was used as a platform of the control program. As a sample stage, KZGO620-G was used, and as objective lens, infinity corrected objective lens with a magnification of 40 and NA of 1.15 was used.

CCCCc1cc(C=Cc2cc[n+](C)cc2)c2ccc3c(CCCC)cc(C=Cc4cc[n+](C)cc4)c4ccc1c2c43.[I-].[I-] [pyrene derivative (III)]
emission of a red fluorescence from the stained cells by two-photon excitation fluorescence microscopy: emission of a red fluorescence from the aforementioned cells was observed
fluorescence staining of HeK293 cells: could achieve the fluorescence staining of HeK293 cells

C[n+]1ccc(/C=C/c2ccc3cc(/C=C/c4cc[n+](C)cc4)ccc3c2)cc1 [naphthalene derivative (I)]
emission of a red fluorescence from the stained cells by two-photon excitation fluorescence microscopy: emission of a red fluorescence from the aforementioned cells was observed
fluorescence staining of HeK293 cells: could achieve the fluorescence staining of HeK293 cells

C[n+]1ccc(/C=C/c2ccc3cc4cc(/C=C/c5cc[n+](C)cc5)ccc4cc3c2)cc1 [anthracene derivative (II)]
emission of a red fluorescence from the stained cells by two-photon excitation fluorescence microscopy: emission of a red fluorescence from the aforementioned cells was observed
fluorescence staining of HeK293 cells: could achieve the fluorescence staining of HeK293 cells
